Data published in article PMC11187126, “Structure and dynamics of the pyroglutamylated RF-amide peptide QRFP receptor GPR103” (Nature Communications, 2024).
Where two headings read alike, the source gives them in different places. No end group written: not given here.

Target: T1, GPR103 Y194^ECL2A (Homo sapiens, UniProt Q96P65, Y194A)
T1 construct: we used human full-length QRFPR-encoding plasmids; expressed in transfected cells; host or cells: HEK293 cells, pCAGGS vector
T1 sequence (Q96P65 1-431 Y194A): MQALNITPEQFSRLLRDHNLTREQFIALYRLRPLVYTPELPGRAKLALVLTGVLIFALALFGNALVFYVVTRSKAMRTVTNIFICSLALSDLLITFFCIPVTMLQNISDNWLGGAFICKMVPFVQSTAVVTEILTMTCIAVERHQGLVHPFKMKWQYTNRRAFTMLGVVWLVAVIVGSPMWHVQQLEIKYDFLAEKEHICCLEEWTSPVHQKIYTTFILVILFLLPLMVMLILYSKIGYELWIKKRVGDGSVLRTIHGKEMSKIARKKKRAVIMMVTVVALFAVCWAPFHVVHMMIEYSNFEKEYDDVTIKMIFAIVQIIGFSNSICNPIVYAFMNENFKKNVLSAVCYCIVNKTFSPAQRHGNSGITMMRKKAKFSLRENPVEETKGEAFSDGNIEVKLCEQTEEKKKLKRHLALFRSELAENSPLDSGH
Experiment: TGFα shedding assay; Exp. level WT (1:10)
Assay type: cell-based
Procedure: For the TGFα shedding assay and the flow cytometry analysis, we used human full-length QRFPR-encoding plasmids. Specifically, GPR103 was N-terminally modified with an HA signal sequence followed by a FLAG epitope and then a flexible linker ([…]; the FLAG epitope is underlined) and inserted into the pCAGGS vector. Plasmid encoding GPR103 mutants were generated using Quickchange Site-Directed Mutagensis kit (Agilent).
The TGFα shedding assay was performed as described previously with minor modifications. Plasmid transfection was performed in a 6-well plate with a mixture of 500 ng (per well in a 6-well plate) AP-TGFα-encoding plasmid and 200 ng GPR103-encoding plasmid. After 1-day culture, the transfected cells were harvested by trypsinization, pelleted by centrifugation at 190 × g for 5 min, and washed once with 5 mM HEPES (pH 7.4)-containing Hank’s Balanced Salt Solution (HBSS). After centrifugation, the cells were resuspended in 8 mL of the HEPES-containing HBSS. The cell suspension was seeded in a 96-well culture plate (cell plate) at a volume of 90 μL (per well hereafter) and incubated in a 37 °C incubator with 5% CO2 for 30 min. […] After spinning the cell plates at 190 × g for 2 min, 80 μL of conditioned media was transferred to an empty 96-well plate (conditioned media (CM) plate). Then, 80 μL of AP reaction solution (10 mM p-nitrophenylphosphate (p-NPP), 120 mM Tris-HCl (pH 9.5), 40 mM NaCl, and 10 mM MgCl2) was dispensed into the cell plates and the CM plates. Absorbance at 405 nm of the plates was measured using a microplate reader (SpectraMax 340 PC384, Molecular Devices) before and after 1-h incubation at room temperature. Ligand-induced AP-TGFα release was calculated by subtracting spontaneous AP-TGFα release signal from ligand-induced AP-TGFα release signal. The AP-TGFα release signals were fitted to a four-parameter sigmoidal concentration–response curve, using the Prism 10 software (GraphPad Prism). For each replicate experiment, the pEC50 parameter (negative logarithmic values of EC50 values) of the individual GPR103 mutants were normalized to that of the wild-type GPR103 performed in parallel, and resulting ∆pEC50 values were used to denote ligand response activity of the mutants. […]
Exp. le vel: WT (1:5 0)Exp. le vel: WT (1:5 0)Exp. le vel: WT (1:5 0)Exp. le vel: WT (1:2 0)Exp. le vel: WT (1:2 0)Exp. le vel: WT (1:1 0) […]
L1 4N - t e r mA F2 5N - t e r mA I 2 6N - t e r mA Y 2 9N - t e r mA C 9 82 .5 7A T10 22 .6 1A Exp . l eve l: WT (1 :5)Exp . l evel : >WT (1 :1)Exp. le vel: WT (1:2 0)Exp. le vel: WT (1:2 0)Exp. le vel: WT (1:5 0)Exp . l eve l: WT (1 :1) […]
Exp. le vel: WT (1:1 0)Exp. le vel: WT (1:2 0) C 1 1 83 .2 5AExp. le vel: WT (1:5 0)Exp. le vel: WT (1:5 0)Exp. le vel: WT (1:2 0)Exp . l eve l: WT (1 :5) […]
Exp. le vel: WT (1:5 0)Exp. le vel: WT (1:1 0)Exp. le vel: WT (1:5 0) E203ECL2AExp . l evel : >WT (1 :1)Exp. le vel: WT (1:5 0)Exp. le vel: WT (1:5 0) […]
Exp . l eve l: WT (1 :1) F28Exp. le vel: WT (1:5 0) C 2 8 56 .4 7AExp. le vel: WT (1:2 0) WExp. le vel: WT (1:2 0) F28Exp. le vel: WT (1:5 0)Exp . l evel : >WT (1 :1) […]
Exp. le vel: WT (1:5 0)Exp. le vel: WT (1:5 0) C 3 2 77 .4 8AExp . l eve l: WT (1 :5)Exp . l evel : >WT (1 :1)Exp . l evel : >WT (1 :1) […]
Suppl eme nt ary Figure 1 | Mutational analysis of GPR103. […]
mutants. Data are presented as mean values ± SEM, normally n=3-5; dots), each performed in triplicate. b-d Cell-surface expression (b) and QRFP26-in-duced activation of GPR103 (c, d) were analyzed by the flow cytometry and the TGFα shedding assay, respectively. From the concentration–response curves (a), Emax (c) and ΔpEC50 (d) values relative to the wild type were calculated. Colors in the mutant bars indicate an expression level matching to that of titrated wild type. Statistical analyses were performed using the ordinary one-way ANOVA followed by Dunnett tests with the expression-matched […]

- Emax (Exp. #1): 91.33 % WT
- Emax (Exp. #2): 94.38 % WT
- Emax (Exp. #3): 115.19 % WT
- Emax (mean, read-out: Emax): 100%
- EC50 (n = 3): 93.3 nM
- Emax (n = 3, read-out: Emax): 102 ± 6.1%
Substance: TSGPLGNLAEELNGYSRKKGGFSFRF-NH2 [QRFP26]
